# Laboratory results published in US11786555B2, “RAR selective agonists in combination with immune modulators for cancer immunotherapy” (IO THERAPEUTICS, INC., priority 2017, dated 2023).
# Legend:
# MM cells = experiment: surface CD138 expression of MM cells by flow cytometry; type: cell-based, human; conditions: absence of stroma, 1 μM
# Experimental: (§1) Coculture experiments. 24-well plates were coated with 0.1% gelatin in PBS for 30 min at 37° C. The gelatin solution was removed, and the stromal cells were cultured overnight at a density of 5×10^4 cells/well to obtain a confluent monolayer. At that time, MM cell lines or primary MM cells (1×10^5 in 2 ml) were added to the stroma cultures. The stroma cocultures were incubated at 37° C. in RPMI containing 10% FCS, L-glutamine, and P/S, with or without AGN194310 (1 μM for 5 days), R115866 (1 μM for 5 days), IRX5183 (1 μM for 5 days), or BTZ (2.5 nM for 48 hr).
# Flow cytometry. Following treatment, MM cells were collected, washed with PBS, and stained for 15 min at room temperature with phycoerythrin-conjugated (PE-conjugated) anti-CD138. Cells were washed to remove unbound antibody and evaluated in a FACSCalibur system (BD Biosciences). Stromal cells were identified by GFP expression, and viable cells were identified using 7-aminoactinomycin D (7-AAD). To calculate cell numbers, live GFP-cells were normalized to calibration beads.
# Expression of CD138 is a hallmark of normal PC differentiation as well MM PCs.
# [1] = test system: H929 cells and primary CD138+ MM cells; experiment: clonogenic or cellular recovery of MM cells after BTZ treatment; type: cell-based, human; conditions: absence of stroma, 1 μM for 5 days, then BTZ 2.5 nM
# Experimental: FIG. 4A-B depicts the clonogenic recovery (CFU) of H929 cells (FIG. 4A) or cellular recovery of primary CD138+ MM cells from 3 different patient samples (FIG. 4B). MM cells were treated with bortezomib (BTZ; 2.5 nM) for 48 hours after being incubated for 5 days either in the absence of stroma (Liquid), with or without the pan-RAR inhibitor AGN (1 μM), or in the presence of BM mesenchymal cells (Stroma), with or without the CYP26 inhibitor R115 (1 μM) or the CYP26-resistant retinoid IRX (1 μM). Clonogenic or cellular recovery was normalized to each condition in the absence of BTZ.
# as §1
# Clonogenic assays. After treatment, MM cells were collected, washed with PBS, and plated at a density of 5,000 cells/ml in 1 ml of 1.32% methylcellulose supplemented with 30% FBS, 10% BSA, L-glutamine, P/S, and 0.1 mM β-ME. Cells were plated in triplicate in 35-mm culture dishes, incubated at 37° C., and scored for the presence of colonies 14 days later.
# A RA-low microenvironment induces BTZ resistance. To determine whether decreased retinoid signaling contributes to BTZ resistance within the BM niche, MM cell lines and MM CD138+ primary cells were incubated with BM stroma for 5 days, followed by BTZ treatment.
# [2] = test system: H929 cells and CD138+ primary MM cells; experiment: qRT-PCR of B cell and PC markers in MM cells, liquid or BM stroma co-culture; type: cell-based, human; conditions: absence of stroma (Liquid), 1 μM for 5 days
# Experimental: FIG. 3A-H depicts the relative concentration of plasma markers BCL6 (FIG. 3A and E), BLIMP-1 (FIG. 3B and F), XBPS-1 (FIG. 3C and G), and CHOP (FIG. 3D and H) in multiple myeloma (MM) cell lines H929 (FIG. 3A-D) or CD138+ MM cells from three different patient samples (FIG. 3E-H) incubated for 5 days either in the absence of stroma (Liquid), with or without AGN (RA receptor antagonist AGN194310, 1 μM), or co-cultured with BM mesenchymal cells (Stroma), with or without R115 (CYP26 inhibitor R115866, 1 μM) or IRX (CYP26-resistant retinoid IRX5183, 1 μM). Expression in untreated liquid conditions was set at 1. Data are representative of 3 independent experiments with similar results and represent the mean ±SEM. *P≤0.05 and **P≤0.01, by repeated-measures 1-way ANOVA for determination of statistical significance between groups; P values were corrected for multiple comparisons using Dunnett's test. Ctrl, control; max, maximum.
# as §1
# (§2) qRT-PCR. Total RNA was extracted using the RNeasy Mini Kit (QIAGEN) according to the manufacturer's instructions. cDNA was synthesized by reverse transcription using the iScript cDNA Synthesis Kit (Bio-Rad). qRT-PCR was performed with iTaq SYBR Green Supermix (Bio-Rad) using sequence specific primers. Gene expression was normalized to GAPDH, and relative quantification was calculated using ΔΔCt. All experiments were performed in duplicate and run on the Bio-Rad CFX96 machine.
# The BM microenvironment (also called “niche”) limits PC differentiation by modulating retinoid signaling. A population of MM progenitors, phenotypically similar to B cells, is intrinsically resistant to BTZ and contributes to MRD and relapse. To investigate whether the BM niche plays a role in determining the phenotype of MM cells, the mRNA expression of B cell and PC markers in MM H929 cell lines (FIG. 3A-D) and MM CD138+ primary cells (FIG. 3E-H) was analyzed following co-culture with mouse BM stroma using human-specific primers. […] In contrast, co-culture of MM cells with BM stroma decreased the mRNA expression of B lymphocyte-induced maturation protein 1 (BLIMP1) and spliced X box-binding protein 1 (XBP1s) (FIG. 3B, C, F, G), which are critical mediators of PC differentiation.
# The BM niche regulates hematopoietic stem cell (HSC) differentiation by expressing the retinoid-inactivating enzyme CYP26. CYP26 enzymes were highly expressed in BM mesenchymal cells, while their expression was barely detectable in MM cells. Since retinoid signaling promotes PC differentiation and potentiates Ig secretion, it was determined whether stromal CYP26 is responsible for inducing a B cell phenotype in MM cells. To this end, co-culture conditions were treated with the CYP26 inhibitor R115866 (R115) or the CYP26-resistant RA receptor α-selective (RARα-selective) retinoid IRX5183 (IRX).
# [3] = test system: naive CD4+ CD25− FoxP3− cells; experiment: in vitro Th17 cell differentiation; type: cell-based, mouse; conditions: in vitro, data not shown
# Experimental: (§3) To determine whether a RARα agonist could affect T cell differentiation, T cells were incubated with a RARα agonist to determine its effect on Foxp3 expression. Naive CD4^+ CD25^− FoxP3^− cells were purified from a Foxp3-GFP mouse using flow cytometry by sorting and isolating based upon a GFP^− phenotype. These cells were activated polyclonally with αCD3 in vitro in the presence of IL-2 and TGF-β. These cells were then cultured in media with various concentrations of compound IRX5183 (a RARα agonist) and the expression of FoxP3-GFP was analyzed by flow cytometry. The RARα agonist compound IRX5183 enhanced differentiation of immunosuppressive Treg cells and inhibited differentiation of inflammatory TH17 cells from naïve T cells in vitro (Table 2).
# CD4+ T cells = experiment: in vivo T cell differentiation in mice (blood and spleen); parameters: species or system mouse; conditions: in vivo, data not shown
# Experimental: To expand on the finding above, the in vivo effects of a RARα agonist on T cell differentiation was evaluated in a mouse model. Mice were treated with 100 μg of compound IRX5183 or an equivalent volume of DMSO (vehicle control) every other day for 10 days. Lymphocytes from the blood and spleen were then isolated and FoxP3 expression in CD4^+ T cells was assessed.
# [4] = test system: naive CD4+ CD25− FoxP3− cells; experiment: in vitro Treg cell differentiation (FoxP3-GFP, flow cytometry); type: cell-based, mouse; conditions: data not shown
# Experimental: as §3
# OCI-AML3 cells = experiment: CFU experiments, off and on stroma; type: cell-based; conditions: 10^−6 M ATRA, IRX5183, or 10^−7 M AM80
# Source text: (§4) Data across three independent experiments.
# Kasumi-1 cells = experiment: CFU experiments, off and on stroma; type: cell-based; conditions: 10^−6 M ATRA, IRX5183, or 10^−7 M AM80
# Source text: as §4
# NB4 cells = experiment: CFU experiments, off and on stroma; type: cell-based; conditions: 10^−7 M ATRA, IRX5183, or 10^−8 M AM80
# Source text: as §4
# [5] = test system: FLT3/ITD acute myeloid leukemia (AML) cells; conditions: cited from earlier work
# BM stromal cells = experiment: stromal Cyp26a1 upregulation by MM cells in coculture; type: cell-based, mouse; conditions: coculture with MM cells
# Experimental: as §2
# To confirm the role of paracrine Hedgehog on this interaction, smoothened (Smo), a membrane receptor that transduces SHH signaling, was knocked out at the genomic level in the mesenchymal compartment. For this, BM mesenchymal cells derived from Smo^fl/fl mice were transduced with a retroviral vector encoding Cre recombinase (Smo-KO stroma). Mouse Smo^fl/fl stromal cells transduced with an empty retroviral vector were used as a control (WT stroma). The transduced BM stromal cells were cocultured with MM cells for 24 hr.
# [6] = test system: relapse/refractory patients; conditions: in combination with BTZ; cited from earlier work
smiles,measurement,setting,value
CCc1ccc(C2=CC(C)(C)Sc3ccc(C#Cc4ccc(C(=O)O)cc4)cc32)cc1 [AGN194310],surface CD138 expression,MM cells,markedly decreased
same,effect on BTZ sensitivity,[1],decreasing BTZ sensitivity
same,"mRNA expression of B cell and PC markers (BCL6, BLIMP1, XBP1s, CHOP)",[2],mimicked the changes induced by BM stromal cells
CCOc1c(Br)cc(C(=O)Nc2ccc(C(=O)O)cc2)cc1C(=O)c1ccc(C)cc1 [AGN196996],Th17 cell numbers,[3],increases Th17 cell numbers
same,Th17 cell numbers,CD4+ T cells,increases Th17 cell numbers
same,Treg cell numbers,CD4+ T cells,decreases Treg cell numbers
same,Treg cell numbers,[4],decreases Treg cell numbers
"CC1(C)CCC(C)(C)c2cc(NC(=O)c3ccc(C(=O)O)cc3)ccc21 [AM80, 4-[(5,6,7,8-tetrahydro-5,5,8,8-tetramethyl-2-naphthalenyl)carbamoyl]benzoic acid]","clonogenic growth (CFU), differentiation and elimination of AML",OCI-AML3 cells,decrease in clonogenic growth compared to control
same,"clonogenic growth (CFU), differentiation and elimination of AML",Kasumi-1 cells,decrease in clonogenic growth compared to control
same,"clonogenic growth (CFU), differentiation and elimination of AML",NB4 cells,decrease in clonogenic growth compared to control
same,differentiation and sensitivity to FLT3 inhibitors,[5],differentiates FMS-like tyrosine kinase 3/internal tandem duplication (FLT3/ITD) acute myeloid leukemia (AML) cells and increase their sensitivity to FLT3 inhibitors
CC1=C2C[C@H]3[C@@H](CC=C4C[C@@H](O)CC[C@@]43C)[C@@H]2CC[C@]12O[C@@H]1C[C@H](C)CN[C@H]1[C@H]2C [cyclopamine],stromal Cyp26a1 upregulation by MM cells,BM stromal cells,partially overcame stromal Cyp26a1 upregulation by MM cells
c1cc(CN2CCCNCCNCCCNCC2)ccc1CN1CCCNCCNCCCNCC1 [plerixafor],response rates,[6],improved response rates
